Measured values: PMC6009861, “Development of terphenyl-2-methyloxazol-5(4H)-one derivatives as selective reversible MAGL inhibitors” (Journal of Enzyme Inhibition and Medicinal Chemistry, 2017)

Legend:
MAGL [1] = biological target: T1, MAGL (Homo sapiens, UniProt Q99685); test: MAGL preincubation assay; assay type: biochemical; conditions: preincubation 0, 30 and 60 min with hMAGL
T1 construct: purchased Cayman Chemical
T1 sequence (Q99685 1-303): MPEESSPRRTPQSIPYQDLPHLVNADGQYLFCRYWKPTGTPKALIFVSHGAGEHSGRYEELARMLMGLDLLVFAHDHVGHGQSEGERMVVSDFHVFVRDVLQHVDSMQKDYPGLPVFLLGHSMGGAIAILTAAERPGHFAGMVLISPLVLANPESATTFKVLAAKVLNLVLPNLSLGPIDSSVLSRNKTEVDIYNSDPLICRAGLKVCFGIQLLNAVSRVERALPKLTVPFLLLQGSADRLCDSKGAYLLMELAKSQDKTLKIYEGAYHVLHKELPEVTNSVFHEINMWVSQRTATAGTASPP
Protocol: The MAGL reaction was conducted at RT at a final volume of 200 µL in 10 mM Tris buffer, pH 7.2, containing 1 mM EDTA. A total of 150 µL of MAGL (11 ng/well) was added to 10 µL of DMSO containing the appropriate amount of compound. After 0, 30, and 60 min of incubation time the reaction was initiated by the addition of 40 µL of 4-NPA 500 µM. The enzyme activity was then measured according to the procedure described above.

human FAAH = biological target: T2, human FAAH (Homo sapiens, UniProt O00519); test: FAAH inhibition assay (AMC arachidonoyl amide, fluorescence); assay type: biochemical; conditions: AMC arachidonoyl amide 10 µM, 30 min, RT
T2 sequence (O00519 1-579): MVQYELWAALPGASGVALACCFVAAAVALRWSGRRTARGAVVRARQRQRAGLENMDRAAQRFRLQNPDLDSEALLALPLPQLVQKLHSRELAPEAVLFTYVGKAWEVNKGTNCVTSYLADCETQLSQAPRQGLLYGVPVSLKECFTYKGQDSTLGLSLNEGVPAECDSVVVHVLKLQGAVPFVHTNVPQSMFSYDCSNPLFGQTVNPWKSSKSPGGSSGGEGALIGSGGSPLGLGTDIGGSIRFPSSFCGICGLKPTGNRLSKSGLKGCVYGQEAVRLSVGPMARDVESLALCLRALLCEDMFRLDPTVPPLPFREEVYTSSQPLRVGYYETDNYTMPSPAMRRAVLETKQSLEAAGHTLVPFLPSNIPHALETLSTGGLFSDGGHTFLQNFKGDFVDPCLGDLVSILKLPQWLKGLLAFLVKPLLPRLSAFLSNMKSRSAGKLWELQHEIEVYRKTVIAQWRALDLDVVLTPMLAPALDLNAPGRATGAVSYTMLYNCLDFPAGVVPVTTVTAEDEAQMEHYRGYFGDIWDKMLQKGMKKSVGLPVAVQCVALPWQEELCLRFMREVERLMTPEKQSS
Protocol: The IC50 values for compounds were generated in 96-well microtiter plates. The FAAH reaction was conducted at RT at a final volume of 200 µL in 125 mM Tris buffer, pH 9.0, containing 1 mM EDTA. A total of 150 µL of AMC arachidonoyl amide 13.3 µM (final concentration = 10 µM) was added to 10 µL of DMSO containing the appropriate amount of compound. The reaction was initiated by the addition of 40 µL of FAAH (0.9 µg/well) in such a way that the assay was linear over 30 min. After the reaction had proceeded for 30 min, fluorescence values were then measured by using a VictorX3 PerkinElmer instrument at an excitation wavelength of 340 nm and an emission of 460 nm. Two reactions were also run: one reaction containing no compounds and the second one containing neither inhibitor nor enzyme. IC50 values were derived from experimental data using the Sigmoidal dose − response fitting of GraphPad Prism software as reported earlier. To remove possible false-positive results, for each compound concentration, a blank analysis was carried out, and the final fluorescence results were obtained detracting the fluorescence produced by the presence of all the components except FAAH in the same conditions.

[2] = system: noncancerous human mesenchymal stem cells (hMSC); test: Cell viability assay, hMSC; assay type: cell-based; conditions: 96 h
Protocol: (§1) COV318, OVCAR-3 (from ATCC) and hMSC (from AB Cell-Bio) were maintained at 37 °C in a humidified atmosphere containing 5% CO2 accordingly to the supplier. Normal (1.5 × 10^4) and tumor (5 × 10^2) cells were plated in 96-well culture plates. The day after seeding, vehicle or compounds were added at different concentrations to the medium. Compound was added to the cell culture at a concentration ranging from 200 to 0.02 µM. Cell viability was measured after 96 h according to the supplier (Promega, G7571) with a Tecan F200 instrument. IC50 values were calculated from logistical dose–response curves. Averages were obtained from three independent experiments, and error bars are standard deviations (n = 3).

CAOV3 = test: Cell viability assay, CAOV3; assay type: cell-based; conditions: Caov-3; CAOV3 human ovarian cancer cells, 96 h
OVCAR3 = test: Cell viability assay, OVCAR3; assay type: cell-based; conditions: OVCAR-3; OVCAR3 human ovarian cancer cells, 96 h
Protocol: as §1

MAGL [3] = biological target: T1, MAGL; test: MAGL dilution assay; assay type: biochemical; conditions: 10 µM incubated 60 min, then 40x dilution (final 0.25 µM)
Protocol: The enzyme (880 ng in 75 µL of Tris buffer, pH 7.2) was incubated during 60 min at RT with 5 µL of compound 20b (concentration of 10 µM in the mixture) dissolved in DMSO. The MAGL-inhibitor mixture was then diluted 40-fold with the buffer. After 15 min of incubation, the reaction was initiated on a 160 µL aliquot by the addition of 40 µL of 4-NPA 500 µM and the enzyme activity was measured according to the procedure described above.

MAGL [4] = biological target: T1, MAGL; test: MAGL-inhibition assay (4-NPA substrate, absorbance 405 nm); assay type: biochemical; conditions: for MAGL/FAAH selectivity: ratio of FAAH IC50 to MAGL IC50 (fold)
Protocol: Human recombinant MAGL, and 4-nitrophenylacetate substrate (4-NPA) were from Cayman Chemical. The IC50 values for compounds were generated in 96-well microtiter plates. The MAGL reaction was conducted at RT at a final volume of 200 µL in 10 mM Tris buffer, pH 7.2, containing 1 mM EDTA. A total of 150 µL of 4-NPA 133.3 µM (final concentration = 100 µM) was added to 10 µL of DMSO containing the appropriate amount of compound. The reaction was initiated by the addition of 40 µL of MAGL (11 ng/well) in such a way that the assay was linear over 30 min. […] After the reaction had proceeded for 30 min, absorbance values were then measured by using a VictorX3 PerkinElmer instrument at 405 nm. Two reactions were also run: one reaction containing no compounds and the second one containing neither inhibitor nor enzyme. IC50 values were derived from experimental data using the Sigmoidal dose–response fitting of GraphPad Prism software as reported earlier.

[5] = system: EAE mouse model of multiple sclerosis; design: method as in PMID 25298214; conditions: cited from earlier work
[6] = human recombinant MAGL, 4-NPA 100 µM, 30 min, RT

| Compound | IC50 (human FAAH) [µM] | IC50 (MAGL [4]; [6]) [nM] | MAGL/FAAH selectivity (MAGL [4]) | further results |
| --- | --- | --- | --- | --- |
| COc1ccc(-c2ccc(-c3ccc(OC)cc3)c(/C=C3\N=C(C)OC3=O)c2)cc1 [Compound 20b, (Z)-4-{[4,4′′-Dimethoxy-(1,1′:4′,1′′-terphenyl)-2′-yl]methylene}-2-methyloxazol-5(4H)-one] | 36.1 ± 1.12 | 348 ± 38 | 104 | Change of MAGL blocking ability (IC50) with preincubation time (MAGL [1]): did not show any significant increase; IC50 [2]: > 100 µM; IC50 (CAOV3): 23.8 µM; IC50 (OVCAR3): 41.6 µM; Inhibition mechanism in dilution assay (MAGL [3]): reversible inhibition |
| CC1=N/C(=C\c2cc(-c3ccc(Cl)cc3)ccc2-c2ccc(Cl)cc2)C(=O)O1 [Compound 20h, (Z)-4-{[4,4′′-Dichloro-(1,1′:4′,1′′-terphenyl)-2′-yl]methylene}-2-methyloxazol-5(4H)-one] | 11.5 ± 0.998 | 476 ± 39 | 24 | – |
| CC1=N/C(=C\c2ccc(-c3ccccc3)cc2-c2ccccc2)C(=O)O1 [Compound 7, (Z)-4-[(1,1′:3′,1′′-Terphenyl)-4′-ylmethylene]-2-methyloxazol-5(4H)-one] | 18.2 ± 0.904 | 546 ± 20 | 33 | – |
| CC1=N/C(=C\c2cc(-c3ccc4c(c3)OCO4)ccc2-c2ccc3c(c2)OCO3)C(=O)O1 [Compound 20f, (Z)-4–[2,5-Bis(benzo[d][1,3]dioxol-5-yl)benzylidene]-2-methyloxazol-5(4H)-one] | 23.7 ± 1.35 | 673 ± 23 | 35 | – |
| CC1=N/C(=C\c2cccc(-c3ccccc3)c2-c2ccccc2)C(=O)O1 [Compound 9, (Z)-4-[(1,1′:2′,1′′-Terphenyl)-3′-ylmethylene]-2-methyloxazol-5(4H)-one] | 20.1 ± 1.44 | 2560 ± 172 | 8 | – |
| O=C(CCCCCc1ccc(-c2ccccc2)cc1)OCc1ccc2c(c1)OCO2 [c21] | – | – | – | Catalepsy or other motor impairments ([5]; mouse): not accompanied by catalepsy or other motor impairments; Effect on clinical progression in EAE mouse model ([5]; multiple sclerosis mouse model): ameliorated the clinical progression |
| CC1=N/C(=C\c2cc(-c3ccc(F)cc3)ccc2-c2ccc(F)cc2)C(=O)O1 [Compound 20a, (Z)-4-{[4,4′′-Difluoro-(1,1′:4′,1′′-terphenyl)-2′-yl]methylene}-2-methyloxazol-5(4H)-one] | 28 ± 1.31 | 683 ± 50 | 41 | – |
| CC1=N/C(=C\c2ccc(-c3ccccc3)c(-c3ccccc3)c2)C(=O)O1 [Compound 5, (Z)-4-[(1,1′:2′,1′′-Terphenyl)-4′-ylmethylene]-2-methyloxazol-5(4H)-one] | 2.32 ± 0.051 | 837 ± 18 | 3 | – |
| O=C(Oc1ccc([N+](=O)[O-])cc1)N1CCC(C(O)(c2ccc3c(c2)OCO3)c2ccc3c(c2)OCO3)CC1 [JZL-184, reference compound] | 3.3 ± 0.205 | – | – | – |
| CC1=N/C(=C\c2cc(-c3ccccc3)ccc2-c2ccccc2)C(=O)O1 [Compound 15, (Z)-4-[(1,1′:4′,1′′-Terphenyl)-2′-ylmethylene]-2-methyloxazol-5(4H)-one] | 10.9 ± 0.161 | 320 ± 10 | 34 | – |
| CC1=N/C(=C\c2cc(-c3ccccc3)cc(-c3ccccc3)c2)C(=O)O1 [Compound 13, (Z)-4-[(1,1′:3′,1′′-Terphenyl)-5′-ylmethylene]-2-methyloxazol-5(4H)-one] | 14.8 ± 1.18 | 457 ± 10 | 32 | – |
| COc1ccc(-c2ccc(-c3ccc(OC)c(F)c3)c(/C=C3\N=C(C)OC3=O)c2)cc1F [Compound 20g, (Z)-4-{[3,3′′-Difluoro-4,4′′-dimethoxy-(1,1′:4′,1′′-terphenyl)-2′-yl]methylene}-2-methyloxazol-5(4H)-one] | 22.3 ± 1.24 | 335 ± 2 | 67 | – |
| CC1=N/C(=C\c2cc(-c3ccc(C(F)(F)F)cc3)ccc2-c2ccc(C(F)(F)F)cc2)C(=O)O1 [Compound 20d, (Z)-4-{[4,4′′-Bis(trifluoromethyl)-(1,1′:4′,1′′-terphenyl)-2′-yl]methylene}-2-methyloxazol-5(4H)-one] | 29 ± 1.16 | 6760 ± 1130 | 4 | IC50 (MAGL [4]; approximate values): 4000 to 6000 nM |
| CC1=N/C(=C\c2cc(-c3cccc(F)c3)ccc2-c2cccc(F)c2)C(=O)O1 [Compound 20e, (Z)-4-{[3,3′′-Difluoro-(1,1′:4′,1′′-terphenyl)-2′-yl]methylene}-2-methyloxazol-5(4H)-one] | 11.7 ± 0.895 | 628 ± 32 | 19 | – |
| COc1nn(-c2ccc(NC(=O)OCc3ccccc3)c(C)c2)c(=O)o1 [CAY10499, reference compound] | 0.0147 ± 0.0002 | 144 ± 4 | 0.1 | – |
| CC1=N/C(=C\c2cc(-c3ccc(OC(F)(F)F)cc3)ccc2-c2ccc(OC(F)(F)F)cc2)C(=O)O1 [Compound 20c, (Z)-4-{[4,4′′-Bis(trifluoromethoxy)-(1,1′:4′,1′′-terphenyl)-2′-yl]methylene}-2-methyloxazol-5(4H)-one] | 17.7 ± 1.2 | 4190 ± 299 | 4 | IC50 (MAGL [4]; approximate values): 4000 to 6000 nM |
